Measured values as given in patent US20240246941A1, “SUBSTITUTED 4-(3-AMINOPROP-1-YL)AMINOQUINOLINE ANALOGS AS MODULATORS OF MELANOMA-ASSOCIATED ANTIGEN 11 UBIQUITIN LIGASE” (ST. JUDE CHILDREN'S RESEARCH HOSPITAL, INC., priority 2020, published 2024).

biological target: interaction between GST-MAGEA11 MHD and FAM-PCF11_4 peptide (MAGE-A11:PCF11) (Homo sapiens (Human), UniProt P43364); assay: TR-FRET dose response competition assay for disruption of MAGE-A11:PCF11 binding; conditions: Dose response TR-FRET screening of nine scaffold groups against MAGE-A11:PCF11; read-out: consensus IC50
Text: TR-FRET Assays and High-throughput Screen. Terbium-anti-GST antibody, 1 M Tris pH 7.5 1 M MgCl2 and 1 M DTT were purchased from Invitrogen (Carlsbad, CA), BSA was purchased from Sigma (St. Louis, MO). Dimethyl sulfoxide (DMSO) was purchased from Fisher Scientific (Pittsburgh, PA). Black 384-well low volume plates and 384-well polypropylene compound plates were purchased from Corning Incorporated (Tewksbury, MA). The St. Jude FDA drug and Bioactive library (11,293 chemicals), Drug-like library (10,073 chemicals) and Lead-like library (10,041 chemicals) were custom assembled and purchased from commercial sources including Sigma, Microsource (Gaylordsville, CT), selleckchem (Houston, TX), ChemDiv (San Diego, CA), ChemBridge (San Diego, CA), Enamine (Monmouth Jct., NJ), and Life Chemicals (Niagara-on-the-Lake, ON, Canada). They were arrayed (10 mM in DMSO) in 384-well polypropylene compound plates with columns 1, 2, 13 and 14 empty which were reserved for controls.
The TR-FRET assay buffer with a formula of 50 mM Tris pH 7.5, 20 mM MgCl2, 0.1 mg/ml BSA and 1 mM DTT was freshly prepared before each experiment. All TR-FRET assays were performed in black 384-well plates with 20 μl/well assay volume in the TR-FRET assay buffer at room temperature (approximately 25° C.). All peptides or compounds were solubilized in DMSO. To test the competitive activity of peptides or compounds against the interaction between GST-MAGEA11 MHD and FAM-PCF11_4 peptide, 10 μl/well peptide or compound at specified concentration was dispensed into a black 384-well low volume plate, followed by 5 μl/well FAM-PCF11_4 (800 nM), 5 μl/well Tb-anti-GST (20 nM) and GST-MAGEA11 MHD (20 nM). The assay components in each well was then mixed by shaking the plate on an IKA MTS 2/4 digital microtiter plate shaker (IKA Works; Wilmington, NC, USA) at 900 RPM for 1 minute. The plate was further centrifuged in an Eppendorf 5810 centrifuge with an A-4-62 swing-bucket rotor (Eppendorf AG, Hamburg, Germany) at 201 g (1000 rpm) for 30 seconds. The plate was then incubated for 90 min with a lid to avoid light exposure to the assay components. After incubation, the fluorescent emission signals at 520 nm and 490 nm channels of individual wells were measured with a PHERAstar FS plate reader (BMG Labtech; Durham, NC, USA) by using a 340 nm excitation filter, 100 μs delay time, and 200 μs integration time. The TR-FRET fluorescence emission ratio (TR-FRET signal) for each well was presented as 10 000×520 nm/490 nm, which was used directly for curve fitting, or further converted to % Inhibition based on the respective positive and negative controls. The graphic software GraphPad Prism 4.81 (GraphPad Software; La Jolla, CA, USA) was used to generate curves and derive IC50 values of tested peptides or compounds, if applicable.
TR-FRET inhibitory activity characterization of a panel of PCF11 peptides against the interaction between GST-MAGEA11 MHD and FAM-PCF11_4 was performed as follows. In a 20 μl/well assay volume, dilutions of PCF11_1 to PCF11_8 peptides (concentrations ranged from 3.1 nM to 100 μM for peptides PCF11_4, PCF11_5, PCF11_6 and PCF11_8 in a 1-to-2 dilution pattern for 16 concentration levels, and ranged from 48.9 nM to 100 μM for peptides of PCF11_1, PCF11_2, PCF11_3 and PCF11_7 in a 1-to-2 dilution pattern for 12 concentration levels), 200 nM FAM-PCF11_4, 5 nM Tb-anti-GST and 5 nM GST-MAGEA11 were mixed together and incubated for 90 min before the TR-FRET signal for each well was measured. The final DMSO concentration was 1.1% (v/v). […] The signal of each peptide-treated well (Signalpeptide) was normalized to the positive and negative controls to derive % inhibition of the peptide at a specific concentration with equation 1. Where applicable, the % Inhibition data were fit into a Sigmoidal dose response equation to derive IC50 values.
TR-FRET screen for identifying MAGEA11 small molecule inhibitors was performed as follows.

Chain of interaction between GST-MAGEA11 MHD and FAM-PCF11_4 peptide (MAGE-A11:PCF11) (P43364 218-429): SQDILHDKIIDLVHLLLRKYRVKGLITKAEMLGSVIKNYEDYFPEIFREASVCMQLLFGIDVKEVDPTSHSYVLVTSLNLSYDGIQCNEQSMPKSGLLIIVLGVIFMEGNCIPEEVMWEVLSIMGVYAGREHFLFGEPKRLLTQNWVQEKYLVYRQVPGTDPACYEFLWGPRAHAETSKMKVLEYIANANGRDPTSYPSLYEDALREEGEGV

| SMILES | IC50 |
| --- | --- |
| CC(=O)Nc1ccc(S(=O)(=O)N2CCN(C3=C(Cl)C(=O)c4ccccc4C3=O)CC2)cc1 [SJ000036320-1] | 69.9 µM |
| CCCCn1c(=O)[nH]c(=O)c2c1nc(-c1ccc(O)c(OC)c1)n2CCC [SJ000429070-1] | 69.9 µM |
| COP(=O)(OC)c1nc(-c2ccc([N+](=O)[O-])cc2)oc1N1CCOCC1 [SJ000092444-1] | 69.9 µM |
| CC(=O)N(C1=C(Cl)C(=O)c2ccccc2C1=O)c1cccc(O)c1 [SJ000046178-1] | 69.9 µM |
| c1ccc(Cc2ccc3c(NCCCNCc4cccc5c4OCO5)ccnc3c2)cc1 [SJ000311308-1] | 46.1 µM |
| CCOP(=O)(OCC)c1nc(-c2ccc([N+](=O)[O-])cc2)oc1N1CCOCC1 [SJ000092459-1] | 69.9 µM |
| CC1CN(c2oc(-c3ccccc3F)nc2S(=O)(=O)c2ccc(F)cc2)CC(C)O1 (stereo not shown) [SJ000329067-1] | 27.3 µM |
| COc1cccc(Oc2ccc3c(NCCCNCc4cccc(OC)c4O)ccnc3c2)c1 [SJ000311215-1] | 69.9 µM |
| CCn1c2ccccc2c2cc(CN3CCN(C(=O)c4ccc(OC)c(OC)c4)CC3)ccc21 [SJ000298589-1] | 69.9 µM |
| NC1=C(Nc2ccc(I)cc2)C(=O)c2ccccc2C1=O [SJ000032712-1] | 69.9 µM |
| COc1ccc(OC(F)(F)F)cc1CNCCCNc1ccnc2cc(Cl)ccc12 [SJ000521035-1] | 69.9 µM |
| CS(=O)(=O)c1ccc(C2=C(c3ccccc3)C(=O)OC2)cc1 [SJ000285362-5] | 67.6 µM |
| CCCn1c(=O)[nH]c(=O)c2c1nc(-c1ccc(OC(F)(F)C(F)C(F)(F)F)cc1)n2CCOC (stereo not shown) [SJ000379374-1] | 69.9 µM |
| COc1ccc(-c2cc3nc[nH]c(=O)c3s2)cc1 [SJ000296726-1] | 69.9 µM |
| COc1ccc(Oc2ccc3c(NCCCNCc4cccc(OC)c4O)ccnc3c2)cc1 [SJ000311219-1] | 29 µM |
| Fc1ccc(Cc2ccc3c(NCCCNCc4cccc5c4OCO5)ccnc3c2)c(Cl)c1 [SJ000311324-1] | 20.6 µM |
| CCCCn1c(=O)[nH]c(=O)c2c1nc(-c1ccc(OCC(=O)O)cc1)n2CCC(C)C [SJ000431347-1] | 69.9 µM |
| O=S(=O)(c1ccc(Cl)cc1)c1nc(-c2cccc(Br)c2)oc1N1CCOCC1 [SJ000027481-1] | 9.2 µM |
| CN(Cc1ccno1)C(=O)c1ccc2c(c1)c1ccccc1n2C [SJ000516830-1] | 69.9 µM |
| COc1ccc(-c2nc(C#N)c(N3CCOCC3)o2)cc1 [SJ000051527-1] | 69.9 µM |
| COc1ccc(Nc2nc(N)c3ccccc3n2)cc1 [SJ000067204-1] | 69.9 µM |
| COc1ccc(C2Nc3ccccc3C(=O)N2Cc2ccccc2)cc1CN1C(=O)c2ccccc2C1=O (stereo not shown) [SJ000295698-1] | 69.9 µM |
| Cc1ccccc1-c1nc(S(=O)(=O)c2ccc(Cl)cc2)c(N2CC(C)OC(C)C2)o1 (stereo not shown) [SJ000329051-1] | 69.9 µM |

| SMILES | IC50 |
| --- | --- |
| CC(C)NC(=O)NC(=O)Cn1cnc2cc(-c3ccccc3)sc2c1=O [SJ000425388-1] | 69.9 µM |
| COC(=O)c1ccc(NC2=C(Cl)C(=O)c3ccccc3C2=O)cc1 [SJ000299646-1] | 69.9 µM |
| CC(C)(C)c1ccc(Oc2ccc3c(NCCCNCc4cccc5c4OCO5)ccnc3c2)cc1 [SJ000311236-1] | 8.67 µM |
| CCCn1c(-c2ccc(OC(F)F)cc2)nc2c1c(=O)[nH]c(=O)n2Cc1ccccc1 [SJ000376621-1] | 69.9 µM |
| CCCCn1c(=O)[nH]c(=O)c2c1nc(-c1cccc(F)c1)n2CC [SJ000414469-1] | 69.9 µM |
| O=C1c2ccccc2NC(c2ccc(F)cc2)N1Cc1ccccc1 (stereo not shown) [SJ000026596-1] | 69.9 µM |
| CCCN1C(=O)c2ccccc2NC1c1ccc(O)c(OC)c1 (stereo not shown) [SJ000295722-1] | 69.9 µM |
| C=CCNC(=O)NC(=O)Cn1cnc2cc(-c3ccccc3)sc2c1=O [SJ000426777-1] | 69.9 µM |
| CCCN1C(=O)c2ccccc2NC1c1ccc(Cl)cc1 (stereo not shown) [SJ000550608-1] | 69.9 µM |
| COc1ccc(F)cc1CNCCCNc1ccnc2cc(Cc3ccc(F)cc3)ccc12 [SJ000311245-1] | 35.1 µM |
| COc1ccc(-c2nc(S(=O)(=O)c3ccc(C)cc3)c(N3CCOCC3)o2)cc1 [SJ000245271-1] | 69.9 µM |
| Cc1ccccc1CNC(=O)Cn1cnc2cc(-c3ccccc3)sc2c1=O [SJ000453315-1] | 69.9 µM |
| Cc1ccc(C2Nc3ccccc3C(=O)N2CCCN2CCOCC2)cc1 (stereo not shown) [SJ000803768-1] | 65.9 µM |
| Cc1ccc(C2Nc3ccccc3C(=O)N2Cc2ccccc2)cc1 (stereo not shown) [SJ000019545-2] | 69.9 µM |
| Fc1ccccc1CNCCCNc1ccnc2cc(Cl)ccc12 [SJ000523060-1] | 69.9 µM |
| COc1ccc(Oc2ccc3c(NCCCNCc4cccc5c4OCO5)ccnc3c2)cc1 [SJ000311220-1] | 43.7 µM |
| COc1ccc(Oc2ccc3c(NCCCNCc4cc(F)ccc4OC)ccnc3c2)cc1 [SJ000311221-1] | 46.4 µM |
| FC(F)(F)c1ccc2c(NCCCNCc3ccc4c(c3)OCO4)ccnc2c1 [SJ000361106-1] | 69.9 µM |
| COc1cccc(CNCCCNc2ccnc3cc(-c4ccc(C(C)(C)C)cc4)ccc23)c1O [SJ000311287-1] | 4.67 µM |
| CCCn1c(-c2ccc(C(C)(C)C)cc2)nc2c1c(=O)[nH]c(=O)n2Cc1ccccc1 [SJ000375920-1] | 69.9 µM |
| CSc1ccc(C2Nc3ccccc3C(=O)N2CCCN2CCOCC2)cc1 (stereo not shown) [SJ000803762-1] | 71.3 µM |
| COc1ccc(F)cc1CNCCCNc1ccnc2cc(CCc3ccccc3)ccc12 [SJ000311256-1] | 37.1 µM |

same assay, conditions: Table 5, dose response TR-FRET screening of 59 quinoline compounds against MAGE-A11:PCF11; read-out: TR-FRET IC50

| SMILES | IC50 |
| --- | --- |
| COC(=O)CCCCCNCCCNc1ccnc2cc(Cl)ccc12 [SJ000521021-1] | 31.4 µM |
| FC(F)(F)c1ccc2c(NCCCNCc3ccc[nH]3)ccnc2c1 [SJ000361105-1] | 33 µM |
| CCCN(CCCNc1c2ccc(Cl)cc2nc2ccc(OC)cc12)Cc1ccc2[nH]ccc2c1 [SJ000522732-2] | > 70 µM |

same assay, conditions: Table 6, 4-aminoquinoline compounds; read-out: TR-FRET, IC50

| SMILES | IC50 |
| --- | --- |
| COc1ccc(F)cc1CNCCCNc1ccnc2cc(-c3ccc(C(F)(F)F)cc3)ccc12 [SJ000311281-01] | 5.58 µM |

same assay, conditions: Table 8, representative compounds; read-out: TR-FRET IC50

| SMILES | IC50 |
| --- | --- |
| COC1CCCC(CNCCCNc2ccnc3cc(Cc4ccc(C#N)cc4)ccc23)C1O (stereo not shown) [SJ000311303] | 51 µM |
| COc1ccc(F)cc1CNCCCNc1ccnc2cc(-c3ccc(C(F)(F)F)cc3)ccc12 [SJ000311281-01] | 13.4 µM |
| COc1cccc(F)c1CNCCCNc1ccnc2cc(Cl)ccc12 [SJ000311328] | 69.9 µM |
| COc1c2ccoc2nc2c(OC)c(OCC(O)C(C)O)ccc12 (stereo not shown) [SJ000121402] | > 69.9 µM |
| COc1cccc(CNCCCNc2ccnc3cc(Cc4ccccc4)ccc23)c1O [SJ000311307] | 69.9 µM |
| COc1cccc(CNCCCNc2ccnc3cc(-c4ccc(F)cc4)ccc23)c1O [SJ000311239] | 33.3 µM |
| COc1ccc(F)cc1CNCCCNc1ccnc2cc(CC3CCCCC3)ccc12 [SJ000311253] | 26.3 µM |
| COc1ccc(-c2ccc3c(NCCCNCc4cccc5c4OCO5)ccnc3c2)cc1 [SJ000311296] | 69.9 µM |
| Cc1cccc(CNCCCNc2ccnc3cc(Cl)ccc23)c1 [SJ000523066] | 69.9 µM |
| FC(F)(F)Oc1ccc(CNCCCNc2ccnc3cc(Cl)ccc23)cc1 [SJ000521025] | 69.9 µM |
| COc1cccc(CNCCCNc2ccnc3cc(Cc4ccc(F)cc4Cl)ccc23)c1O [SJ000311323] | 17.6 µM |

same assay, conditions: read-out: IC50 by TR-FRET for disrupting MAGE-A11:PCF11 interaction

| SMILES | IC50 |
| --- | --- |
| COc1ccc(F)cc1CNCCCNc1ccnc2cc(-c3ccc(C(F)(F)F)cc3)ccc12 [SJ000311281-01] | 5.58 µM |
